Measurements reported in US12503475B2 (Centessa Pharmaceuticals (UK) Limited, priority 2020, dated 2025).

Biological target: T1, human orexin type 2 receptor (hOX2R) (Homo sapiens, UniProt O43614)
T1 construct: expressed in transfected cells
T1 sequence (O43614 1-444): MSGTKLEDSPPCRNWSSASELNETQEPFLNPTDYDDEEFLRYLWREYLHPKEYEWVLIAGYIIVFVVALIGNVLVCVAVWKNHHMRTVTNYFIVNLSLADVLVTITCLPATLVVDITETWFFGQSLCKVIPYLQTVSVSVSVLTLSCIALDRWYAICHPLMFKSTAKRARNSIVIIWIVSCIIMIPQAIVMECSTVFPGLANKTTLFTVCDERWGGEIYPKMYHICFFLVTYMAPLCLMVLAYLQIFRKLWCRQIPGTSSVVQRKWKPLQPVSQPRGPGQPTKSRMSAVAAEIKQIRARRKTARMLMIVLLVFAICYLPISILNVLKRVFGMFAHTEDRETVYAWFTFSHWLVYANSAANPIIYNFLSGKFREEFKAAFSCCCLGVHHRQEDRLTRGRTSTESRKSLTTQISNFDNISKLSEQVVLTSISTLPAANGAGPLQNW
Assay: Measurement of orexin type 2 receptor agonist activity (FLIPR calcium fluorescence)
Format: cell-based
Details: CHO cells expressing hOX2R, FLIPR calcium fluorescence; for EC50: read-out: hOx2 pEC50 (converted); for Emax: CHO, read-out: hOx2 Emax (%)
Procedure, shortened: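 Agonism was read as fluorescence in cells stably expressing human OX2R. E. is the response at 10 μM relative to orexin A as full agonist (100%).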

SMILES | EC50 [nM] | Emax [%] | hOx2 Emax (%)
O=C([C@H]1CCO1)N1CC2(CC2)[C@H](NS(=O)(=O)C2CC2)[C@@H]1Cc1cccc(-c2ccccc2)c1 [Compound 42, N-((6S,7S)-6-([1,1′-biphenyl]-3-ylmethyl)-5-((R)-oxetane-2-carbonyl)-5-azaspiro[2.4]heptan-7-yl)cyclopropanesulfonamide] | 1 to 10 | 90 to 100 | 
COC[C@H](F)C(=O)N1CC2(CC2)[C@H](NS(=O)(=O)CF)[C@@H]1Cc1cccc(-c2ccccc2)c1F [Compound 224, 1-fluoro-N-((6S,7S)-5-((S)-2-fluoro-3-methoxypropanoyl)-6-((2-fluoro-[1,1′-biphenyl]-3-yl)methyl)-5-azaspiro[2.4]heptan-7-yl)methanesulfonamide] | 1 to 10 | 90 to 100 | 
O=C([C@H]1CCO1)N1CC2(CC2)[C@H](NS(=O)(=O)CF)[C@@H]1Cc1cc(F)cc(-c2cc(F)cc(F)c2)c1F [Compound 227, 1-fluoro-N-((6S,7S)-5-((R)-oxetane-2-carbonyl)-6-((2,3′,5,5′-tetrafluoro-[1,1′-biphenyl]-3-yl)methyl)-5-azaspiro[2.4]heptan-7-yl)methanesulfonamide] | 1 to 10 | 90 to 100 | 
CS(=O)(=O)N[C@@H]1[C@H](Cc2cccc(-c3ccccc3)c2)N(C(=O)[C@H]2C[C@@H](F)C2)CC12CC2 (racemic) [Compound 308, N-(-6-([1,1′-biphenyl]-3-ylmethyl)-5-((1s,3R)-3-fluorocyclobutane-1-carbonyl)-5-azaspiro[2.4]heptan-7-yl)methanesulfonamide] | 10 to 100 | 90 to 100 | 
CS(=O)(=O)N[C@@H]1[C@H](Cc2cccc(-c3cc(F)cc(F)c3)c2F)N(C(=O)N2CCC2)CC12CC2 [Compound 32, N-((6S,7S)-5-(azetidine-1-carbonyl)-6-((2,3′,5′-trifluoro-[1,1′-biphenyl]-3-yl)methyl)-5-azaspiro[2.4]heptan-7-yl)methanesulfonamide] | 0.0794 to 1 | 90 to 100 | 
CS(=O)(=O)N[C@@H]1[C@H](Cc2cccc(-c3ccccc3)c2F)N(C(=O)[C@@H]2CCO2)CC12CC2 [Compound 20, N-((6S,7S)-6-((2-fluoro-[1,1′-biphenyl]-3-yl)methyl)-5-((S)-oxetane-2-carbonyl)-5-azaspiro[2.4]heptan-7-yl)methanesulfonamide] | 10 to 100 | 90 to 100 | 
C[C@@H](CF)NC(=O)N1CC2(CC2)[C@H](NS(C)(=O)=O)[C@@H]1Cc1cccc(-c2ccccc2)c1F [Compound 337, (6S,7S)-6-((2-fluoro-[1,1′-biphenyl]-3-yl)methyl)-N-((S)-1-fluoropropan-2-yl)-7-(methylsulfonamido)-5-azaspiro[2.4]heptane-5-carboxamide] | 1 to 10 | 90 to 100 | 
CC(F)C(=O)N1CC2(CC2)C(NS(C)(=O)=O)C1Cc1cccc(-c2ccccc2)c1 (single isomer, unassigned) [Compound 2, N-(6-([1,1′-biphenyl]-3-ylmethyl)-5-(2-fluoropropanoyl)-5-azaspiro[2.4]heptan-7-yl)methanesulfonamide] | 100 to 1000 |  | C (Emax ranging between 70 and 80)
[2H]C([2H])([2H])N(C(=O)N1CC2(CC2)[C@H](NS(C)(=O)=O)[C@@H]1Cc1cc(F)cc(-c2ccccc2)c1F)C([2H])([2H])[2H] [Compound 355, (6S,7S)-6-((2,5-difluoro-[1,1′-biphenyl]-3-yl)methyl)-N,N-bis(methyl-d3)-7-(methylsulfonamido)-5-azaspiro[2.4]heptane-5-carboxamide] | 10 to 100 | 90 to 100 | 
O=C([C@H]1CCO1)N1CC2(CC2)[C@H](NS(=O)(=O)/C=C/F)[C@@H]1Cc1cccc(-c2ccccc2)c1F [Compound 204, (E)-2-fluoro-N-((6S,7S)-6-((2-fluoro-[1,1′-biphenyl]-3-yl)methyl)-5-((R)-oxetane-2-carbonyl)-5-azaspiro[2.4]heptan-7-yl)ethene-1-sulfonamide] | 10 to 100 | 90 to 100 | 
CS(=O)(=O)N[C@@H]1[C@H](Cc2cc(F)cc(-c3ccccc3)c2F)N(C(=O)[C@H]2CCO2)CC12CC2 [Compound 59, N-((6S,7S)-6-((2,5-difluoro-[1,1′-biphenyl]-3-yl)methyl)-5-((R)-oxetane-2-carbonyl)-5-azaspiro[2.4]heptan-7-yl)methanesulfonamide] | 1 to 10 | 90 to 100 | 
CS(=O)(=O)N[C@@H]1[C@H](Cc2cccc(-c3ccccc3)c2F)N(C(=O)NC[C@H]2CCO2)CC12CC2 [Compound 331, (6S,7S)-6-((2-fluoro-[1,1′-biphenyl]-3-yl)methyl)-7-(methylsulfonamido)-N-(((R)-oxetan-2-yl)methyl)-5-azaspiro[2.4]heptane-5-carboxamide] | 1 to 10 | 90 to 100 | 
O=C([C@H]1C[C@H](F)C1)N1CC2(CC2)[C@H](NS(=O)(=O)C(F)F)[C@@H]1Cc1cccc(-c2ccccc2)c1F [Compound 182, 1,1-difluoro-N-((6S,7S)-6-((2-fluoro-[1,1′-biphenyl]-3-yl)methyl)-5-((1r,3r)-3-fluorocyclobutane-1-carbonyl)-5-azaspiro[2.4]heptan-7-yl)methanesulfonamide] | 1 to 10 | 90 to 100 | 
O=C(NCC(F)F)N1CC2(CC2)[C@H](NS(=O)(=O)CF)[C@@H]1Cc1cccc(-c2cc(F)cc(F)c2)c1F [Compound 411] | 0.0794 to 1 | 90 to 100 | 
O=C([C@H](O)CF)N1CC2(CC2)[C@H](NS(=O)(=O)CF)[C@@H]1Cc1cc(F)cc(-c2ccccc2)c1F [Compound 190, N-((6S,7S)-6-((2,5-difluoro-[1,1′-biphenyl]-3-yl)methyl)-5-((S)-3-fluoro-2-hydroxypropanoyl)-5-azaspiro[2.4]heptan-7-yl)-1-fluoromethanesulfonamide] | 1 to 10 | 90 to 100 | 
CC(C)C(=O)N1CC2(CC2)[C@H](NS(=O)(=O)N(C)C)[C@@H]1Cc1cccc(-c2ccccc2)c1 (racemic) [Compound 304] | 10 to 100 | 90 to 100 | 
CC(C)(O)C(=O)N1CC2(CC2)[C@H](NS(=O)(=O)CF)[C@@H]1Cc1cc(F)cc(-c2cccc(F)c2)c1F [Compound 210, 1-fluoro-N-((6S,7S)-5-(2-hydroxy-2-methylpropanoyl)-6-((2,3′,5-trifluoro-[1,1′-biphenyl]-3-yl)methyl)-5-azaspiro[2.4]heptan-7-yl)methanesulfonamide] | 10 to 100 | 90 to 100 | 
O=C(N1CC2(CC2)C(NS(=O)(=O)CF)C1Cc1cccc(-c2ccccc2)c1F)C1(O)CCC1 (racemic) [Compound 108, 1-fluoro-N-(6-((2-fluoro-[1,1′-biphenyl]-3-yl)methyl)-5-(1-hydroxycyclobutane-1-carbonyl)-5-azaspiro[2.4]heptan-7-yl)methanesulfonamide] | 0.0794 to 1 | 90 to 100 | 
CN(CC(F)F)C(=O)N1CC2(CC2)[C@H](NS(C)(=O)=O)[C@@H]1Cc1cccc(-c2ccccc2)c1F [Compound 81, (6S,7S)-N-(2,2-difluoroethyl)-6-((2-fluoro-[1,1′-biphenyl]-3-yl)methyl)-N-methyl-7-(methylsulfonamido)-5-azaspiro[2.4]heptane-5-carboxamide] | 0.0794 to 1 | 90 to 100 | 
CS(=O)(=O)NC1C(Cc2cccc(-c3ccccc3)c2F)N(C(=O)N2CC(F)C2)CC12CC2 (racemic) [Compound 45, N-(6-((2-fluoro-[1,1′-biphenyl]-3-yl)methyl)-5-(3-fluoroazetidine-1-carbonyl)-5-azaspiro[2.4]heptan-7-yl)methanesulfonamide] | 1 to 10 | 90 to 100 | 
N#C[C@@]1(C(=O)N2CC3(CC3)[C@H](NS(=O)(=O)CF)[C@@H]2Cc2cccc(-c3ccccc3)c2F)CCO1 (single isomer, unassigned) [Compound 225] | 1 to 10 | 90 to 100 | 
CCNC(=O)N1CC2(CC2)[C@H](NS(C)(=O)=O)[C@@H]1Cc1cccc(-c2ccccc2)c1 (racemic) [Compound 303, 6-([1,1′-biphenyl]-3-ylmethyl)-N-ethyl-7-(methylsulfonamido)-5-azaspiro[2.4]heptane-5-carboxamide] | 1 to 10 | 90 to 100 | 
CS(=O)(=O)N[C@@H]1[C@H](Cc2cc(F)cc(-c3ccccc3)c2F)N(C(=O)[C@H](O)C2CC2)CC12CC2 [Compound 352, N-((6S,7S)-5-((R)-2-cyclopropyl-2-hydroxyacetyl)-6-((2,5-difluoro-[1,1′-biphenyl]-3-yl)methyl)-5-azaspiro[2.4]heptan-7-yl)methanesulfonamide] | 1 to 10 | 90 to 100 | 
CCNC(=O)N1CC2(CC2)C(NS(C)(=O)=O)C1Cc1cccc(-c2ccccc2)c1F (racemic) [Compound 38, N-ethyl-6-((2-fluoro-[1,1′-biphenyl]-3-yl)methyl)-7-(methylsulfonamido)-5-azaspiro[2.4]heptane-5-carboxamide] | 1 to 10 | 90 to 100 | 
O=C([C@H]1CCO1)N1CC2(CC2)[C@H](NS(=O)(=O)CF)[C@@H]1Cc1cccc(-c2cccc(F)c2)c1F [Compound 132, N-((6S,7S)-6-((2,3′-dfluoro-1,1′-biphenyl-3-yl)methyl)-5-((R)-oxetane-2-carbonyl)-5-azaspiro[2.4]heptan-7-yl)-1-fluoromethanesulfonamide] | 0.0794 to 1 | 90 to 100 | 
